# From the supplement of paper PMC11061612
# Assays:
# Assay in all cases: combination Emax (second highest fraction inhibited in the dose matrix, 72 h); higher = more inhibition; extreme values may be limits of the assay
# [1] = test system: Hs-633T (Other Solid Carcinomas)
# Summary of the method: (§1)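 After 24 hours at 37°C and 5% CO2 in 1536-well plates, cells in DMEM/F12 or RPMI plus 10% FBS received two-drug dose matrices for 72 hours. Viability came from CellTiter-Glo 2.0 luminescence and was scaled as inhibition, anchored at 0 by vehicle wells and at 1 by blank wells. Combination Emax is taken as the second-highest inhibition in the matrix, and Bliss excess as the observed combination effect less EA + EB − EA·EB, with EA and EB the single-agent effects.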
# [2] = test system: OC-314 (Ovarian Carcinoma)
# Summary of the method: as §1
# SH-4 (Melanoma) = test system: SH-4 (Melanoma)
# Summary of the method: as §1
# [3] = test system: CAL-51 (Breast Carcinoma)
# Summary of the method: as §1
# [4] = test system: KARPAS-231 (B-Cell Non-Hodgkin's Lymphoma)
# Summary of the method: as §1
# [5] = test system: SW1116 (Colorectal Carcinoma)
# Summary of the method: as §1
# [6] = test system: 639-V (Bladder Carcinoma)
# Summary of the method: as §1
# [7] = test system: HARA (Squamous Cell Lung Carcinoma)
# Summary of the method: as §1
# [8] = test system: MDA-MB-468 (Breast Carcinoma)
# Summary of the method: as §1
# COLO-829 (Melanoma) = test system: COLO-829 (Melanoma)
# Summary of the method: as §1
# [9] = test system: EN (Endometrial Carcinoma)
# Summary of the method: as §1
# HMV-II (Melanoma) = test system: HMV-II (Melanoma)
# Summary of the method: as §1
# [10] = test system: LoVo (Colorectal Carcinoma)
# Summary of the method: as §1
# Mewo (Melanoma) = test system: Mewo (Melanoma)
# Summary of the method: as §1
# [11] = test system: HO-1-u-1 (Oral Cavity Carcinoma)
# Summary of the method: as §1
# [12] = test system: SU-DHL-6 (B-Cell Non-Hodgkin's Lymphoma)
# Summary of the method: as §1
# [13] = test system: MHH-PREB-1 (B-Cell Non-Hodgkin's Lymphoma)
# Summary of the method: as §1
# [14] = test system: LB771-HNC (Head and Neck Carcinoma)
# Summary of the method: as §1
# [15] = test system: SW1271 (Small Cell Lung Carcinoma)
# Summary of the method: as §1
# [16] = test system: CAPAN-1 (Pancreatic Carcinoma)
# Summary of the method: as §1
SMILES,combination Emax [1],combination Emax [2],combination Emax (SH-4 (Melanoma)),combination Emax [3],combination Emax [4],combination Emax [5],combination Emax [6],combination Emax [7],combination Emax [8],combination Emax (COLO-829 (Melanoma)),combination Emax [9],combination Emax (HMV-II (Melanoma)),combination Emax [10],combination Emax (Mewo (Melanoma)),combination Emax [11],combination Emax [12],combination Emax [13],combination Emax [14],combination Emax [15],combination Emax [16]
"Cc1c2c(nn1C)CSCc1cc(n(C)n1)CSc1cc(c3ccccc3c1)OCCCc1c(C(=O)O)n(C)c3c-2c(Cl)ccc13 [AZD5991] + C=CCn1c(=O)c2cnc(Nc3ccc(N4CCN(C)CC4)cc3)nc2n1-c1cccc(C(C)(C)O)n1 [AZD1775] (first compound max 1 µM, partner max 1 µM)",0.711,0.554,0.616,0.915,1,0.378,0.448,0.89,0.615,0.291,0.812,0.487,0.856,0.496,0.677,1,0.853,0.745,0.582,0.465
"Cc1c2c(nn1C)CSCc1cc(n(C)n1)CSc1cc(c3ccccc3c1)OCCCc1c(C(=O)O)n(C)c3c-2c(Cl)ccc13 [AZD5991] + CC1(C)CCC(CN2CCN(c3ccc(C(=O)NS(=O)(=O)c4ccc(NCC5CCOCC5)c([N+](=O)[O-])c4)c(Oc4cnc5[nH]ccc5c4)c3)CC2)=C(c2ccc(Cl)cc2)C1 [Venetoclax] (first compound max 1 µM, 7x7, partner max 1 µM)",0.231,0.147,0.642,0.521,1,0.145,0.194,0.294,0.662,0.213,0.608,0.151,0.147,0.653,0.358,1,0.13,0.587,0.0732,0.138
"Cc1c2c(nn1C)CSCc1cc(n(C)n1)CSc1cc(c3ccccc3c1)OCCCc1c(C(=O)O)n(C)c3c-2c(Cl)ccc13 [AZD5991] + CCN(CCO)CCCOc1ccc2c(Nc3cc(CC(=O)Nc4cccc(F)c4)[nH]n3)ncnc2c1 [AZD2811] (first compound max 1 µM, 7x7, partner max 1 µM)",0.421,0.449,0.336,0.66,1,0.256,0.368,0.776,0.738,0.269,0.866,0.4,0.314,0.366,0.657,1,0.144,0.591,0.176,0.206
"Cc1c2c(nn1C)CSCc1cc(n(C)n1)CSc1cc(c3ccccc3c1)OCCCc1c(C(=O)O)n(C)c3c-2c(Cl)ccc13 [AZD5991] + C[C@@H]1COCCN1C2=NC(=NC(=C2)C3(CC3)[S@](=N)(=O)C)C4=C5C=CNC5=NC=C4 [AZD6738] (first compound max 1 µM, 7x7, partner max 10 µM)",0.938,0.832,0.422,0.899,1,0.281,0.452,0.776,0.768,0.532,0.853,0.424,0.889,0.59,0.844,1,0.729,0.806,0.604,0.488
"Cc1c2c(nn1C)CSCc1cc(n(C)n1)CSc1cc(c3ccccc3c1)OCCCc1c(C(=O)O)n(C)c3c-2c(Cl)ccc13 [AZD5991] + C[C@@H](Nc1cc(F)cc(F)c1)c1cc(C(=O)N(C)C)cc2c(=O)cc(N3CCOCC3)oc12 [AZD8186] (first compound max 1 µM, 7x7, partner max 3 µM)",0.268,0.297,0.332,0.336,1,0.17,0.421,0.412,0.605,0.17,0.558,0.192,0.732,0.314,0.279,1,0.214,0.486,0.207,0.172
"Cc1c2c(nn1C)CSCc1cc(n(C)n1)CSc1cc(c3ccccc3c1)OCCCc1c(C(=O)O)n(C)c3c-2c(Cl)ccc13 [AZD5991] + Cc1cc2ncnn2cc1Nc1ncc2c(n1)n(C1CCOCC1)c(=O)n2C [AZD7648] (first compound max 1 µM, 7x7, partner max 10 µM)",0.391,0.297,0.284,0.365,1,0.168,0.298,0.394,0.462,0.144,0.563,0.273,0.573,0.283,0.418,1,0.175,0.571,0.305,0.267
"Cc1c2c(nn1C)CSCc1cc(n(C)n1)CSc1cc(c3ccccc3c1)OCCCc1c(C(=O)O)n(C)c3c-2c(Cl)ccc13 [AZD5991] + Cn1cnc2c(F)c(Nc3ccc(Br)cc3Cl)c(C(=O)NOCCO)cc21 [Selumetinib] (first compound max 1 µM, 7x7, partner max 3 µM)",0.64,0.245,0.96,0.406,1,0.446,0.283,0.223,0.595,0.907,0.535,0.829,0.565,0.475,0.292,1,0.13,0.429,0.448,0.381
"Cc1cc2ncnn2cc1Nc1ncc2c(n1)n(C1CCOCC1)c(=O)n2C [AZD7648] + C=CCn1c(=O)c2cnc(Nc3ccc(N4CCN(C)CC4)cc3)nc2n1-c1cccc(C(C)(C)O)n1 [AZD1775] (first compound max 10 µM, partner max 1 µM)",0.748,0.567,0.447,0.864,0.979,0.295,0.425,0.797,0.526,0.214,0.662,0.521,0.732,0.427,0.617,0.753,0.823,0.455,0.633,0.5
"Cc1cc2ncnn2cc1Nc1ncc2c(n1)n(C1CCOCC1)c(=O)n2C [AZD7648] + CCN(CCO)CCCOc1ccc2c(Nc3cc(CC(=O)Nc4cccc(F)c4)[nH]n3)ncnc2c1 [AZD2811] (first compound max 10 µM, 7x7, partner max 1 µM)",0.431,0.477,0.345,0.446,0.517,0.249,0.278,0.364,0.492,0.196,0.519,0.37,0.529,0.259,0.449,0.51,0.343,0.251,0.376,0.299
"Cc1cc2ncnn2cc1Nc1ncc2c(n1)n(C1CCOCC1)c(=O)n2C [AZD7648] + CN(C)CCCOc1ccc(-c2ccc3ncc4c(c3c2)n(C2CCOCC2)c(=O)n4C)cn1 [AZD0156] (first compound max 10 µM, 7x7, partner max 1 µM)",0.37,0.348,0.291,0.274,0.208,0.19,0.239,0.283,0.353,0.129,0.35,0.342,0.483,0.285,0.39,0.621,0.511,0.299,0.327,0.31
"Cc1cc2ncnn2cc1Nc1ncc2c(n1)n(C1CCOCC1)c(=O)n2C [AZD7648] + C[C@@H]1COCCN1C2=NC(=NC(=C2)C3(CC3)[S@](=N)(=O)C)C4=C5C=CNC5=NC=C4 [AZD6738] (first compound max 10 µM, 7x7, partner max 10 µM)",0.855,0.905,0.335,0.923,0.837,0.267,0.404,0.841,0.513,0.286,0.62,0.442,0.813,0.5,0.845,0.613,0.863,0.464,0.674,0.495
"Cc1cc2ncnn2cc1Nc1ncc2c(n1)n(C1CCOCC1)c(=O)n2C [AZD7648] + O=C(c1cc(Cc2n[nH]c(=O)c3ccccc23)ccc1F)N1CCN(C(=O)C2CC2)CC1 [Olaparib] (first compound max 10 µM, 7x7, partner max 10 µM)",0.313,0.24,0.179,0.265,0.269,0.0602,0.182,0.314,0.242,0.119,0.301,0.252,0.533,0.138,0.261,0.346,0.232,0.148,0.24,0.237
"NC1(C(=O)N[C@@H](CCO)c2ccc(Cl)cc2)CCN(c2ncnc3[nH]ccc23)CC1 [Capivasertib] + CC(=O)c1c(C)c2cnc(Nc3ccc(N4CCNCC4)cn3)nc2n(C2CCCC2)c1=O [Palbociclib] (first compound max 10 µM, 7x7, partner max 10 µM)",0.707,0.515,0.427,0.55,0.129,0.136,0.299,0.689,0.508,0.356,0.546,0.524,0.722,0.493,0.806,1,0.502,0.403,0.349,0.277
